Reference: ChEMBL document CHEMBL1201862, “PubChem BioAssay data set” (2004)
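Five compound concentrations were applied to cells in 96-well plates for 48 hours; endpoints were derived by simple linear interpolation of the resulting dose-response curve. GI50 marks 50% less growth.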 The source made the active and inactive calls. Cut-off read from the data, not from the text of the source: active = GI50 up to about 1.1 µM and inactive = higher.

Legend:
Experiment in all cases: DTP human tumour cell line panel, 48 h
[1] = tested on: BT-549
[2] = tested on: T47D
[3] = tested on: M19-MEL
[4] = tested on: KM-20L2
[5] = tested on: HOP-18
[6] = tested on: RXF 631
[7] = tested on: LXFL 529
[8] = tested on: DMS-114
[9] = tested on: XF498

`c1ccc(C(=NCCC2CNc3ccccc32)c2ccccc2)cc1` (stereo not drawn) was tested, and the GI50 [1] was > 100 µM (inactive).
For `Nc1nc(Cl)cc(NCCO)n1`, the GI50 [2] was > 100 µM (inactive) and the GI50 [1] was > 100 µM (inactive).
In the case of `O=C(CCC(=O)Nc1ccc(Cl)c(Cl)c1)CC(=O)c1ccc2ccccc2c1`, the GI50 [3] is reported as > 100 µM (inactive), the GI50 [4] is reported as 25.9 µM (inactive) and the GI50 [5] is reported as > 100 µM (inactive). The GI50 [6] was > 100 µM (inactive), the GI50 [7] was 42.7 µM (inactive) and the GI50 [8] was 86.5 µM (inactive).
`COc1ccc2c(c1)CCCN2S(=O)(=O)c1ccccc1[N+](=O)[O-]` was tested, and the GI50 [2] was 48.2 µM (inactive) and the GI50 [1] was 9.06 µM (inactive).
With `COc1cccc2c1C(=O)c1c(O)c3c(c(O)c1C2=O)C[C@](O)(C(=O)CO)CC3OC1CC(N)C(OC2CCCCO2)C(C)O1` (stereo partly drawn) the GI50 [4] was 0.624 µM (active), the GI50 [5] was 0.383 µM (active) and the GI50 [9] was 0.0678 µM (active).
For `c1ccc(-c2c3c(nc4c2CC[C@H]4NC2=NCCN2)[C@@H](NC2=NCCN2)CC3)cc1`, the GI50 [2] was > 100 µM (inactive) and the GI50 [1] was > 40.3 µM (inactive).
`COc1ccc2[nH]c3c(C)c4c(c(C)c3c2c1)CN(C)C=C4` was tested, and the GI50 [3] was 1.02 µM (active), the GI50 [2] was 2.07 µM (inactive) and the GI50 [4] was 2.75 µM (inactive). For the same molecule, the GI50 [1] was 1.97 µM (inactive), the GI50 [5] was 7.38 µM (inactive) and the GI50 [9] was 1.07 µM (active). The GI50 [7] was 0.218 µM (active) and the GI50 [8] was 0.398 µM (active).
`CCC/C(Cl)=N/OC(=O)Nc1cc(C(F)(F)F)ccc1OC` was tested, and the GI50 [2] was 6.44 µM (inactive) and the GI50 [1] was 15.5 µM (inactive).
With `c1ccc(COC2C3COC(O3)C(OCc3ccccc3)C2OCc2ccccc2)cc1` (stereo not drawn) the GI50 [2] was 22.9 µM (inactive) and the GI50 [1] was > 100 µM (inactive).
In the case of `CN1Cc2ccccc2C2(COc3ccccc3C2=O)C1` (stereo not drawn), the GI50 [3] is reported as > 100 µM (inactive), the GI50 [4] is reported as > 100 µM (inactive) and the GI50 [5] is reported as > 100 µM (inactive). The GI50 [7] was 76.6 µM (inactive) and the GI50 [8] was > 100 µM (inactive).
`COc1ccc(C2(C3c4cc(OC)c(OC)cc4CCN3C)SCCCS2)cc1O` (stereo not drawn) was tested, and the GI50 [2] was > 100 µM (inactive) and the GI50 [1] was > 100 µM (inactive).
With `NNc1[nH]c(=S)[nH]c1C(N)=O` the GI50 [2] was > 100 µM (inactive) and the GI50 [1] was > 100 µM (inactive).
With `CCC1=CC2CN3CCc4c([nH]c5ccccc45)C(C(=O)OC)(C2)C13` (stereo not drawn) the GI50 [3] was 42.6 µM (inactive), the GI50 [4] was 1.22 µM (inactive) and the GI50 [5] was 47.9 µM (inactive). For the same molecule, the GI50 [9] was 35.7 µM (inactive) and the GI50 [8] was 39.4 µM (inactive).
With `O=C(CC(=O)N1N=C(c2ccccc2)C(/N=N/c2ccccc2Cl)C1=O)Nc1ccccc1Cl` (stereo not drawn) the GI50 [3] was 32.2 µM (inactive), the GI50 [4] was 46.3 µM (inactive) and the GI50 [6] was 48.5 µM (inactive). The GI50 [9] was 20.7 µM (inactive), the GI50 [7] was 26.2 µM (inactive) and the GI50 [8] was 54.1 µM (inactive).
For `Cn1c(=O)c(-c2ccccc2)c(O)c2ccccc21`, the GI50 [1] was > 100 µM (inactive).
For `O=C(c1ccccc1)c1c(CC(O)c2ccncc2)n(C(=O)c2ccccc2)c2ccccc12` (stereo not drawn), the GI50 [3] was 17.9 µM (inactive), the GI50 [4] was 17.7 µM (inactive) and the GI50 [7] was 18.8 µM (inactive). For the same molecule, the GI50 [8] was 16.9 µM (inactive).
With `CC(C)(C)C(=O)OCC1CCC(n2cnc3c(=O)[nH]c(N)nc32)O1` (stereo not drawn) the GI50 [3] was > 100 µM (inactive), the GI50 [4] was > 100 µM (inactive) and the GI50 [5] was > 100 µM (inactive). The GI50 [9] was > 100 µM (inactive) and the GI50 [8] was > 100 µM (inactive).
With `CN1CCC(CNC(=O)CCCCCCCCC(=O)NCC2(c3ccccc3)CCN(C)CC2)(c2ccccc2)CC1` the GI50 [2] was 30.7 µM (inactive) and the GI50 [1] was > 100 µM (inactive).
In the case of `Fc1cc(-c2cc(-c3ccccc3)no2)c(Cl)cc1Cl`, the GI50 [2] is reported as 14 µM (inactive) and the GI50 [1] is reported as 18.5 µM (inactive).
For `C/C(=N/NC(=S)Nc1ccccc1C)c1ccccn1`, the GI50 [2] was < 0.0475 µM (active) and the GI50 [1] was 3.14 µM (inactive).
With `CC(=O)Oc1c(C)c2c(c3ccccc13)OC(C)(C)C2` the GI50 [2] was 20.3 µM (inactive) and the GI50 [1] was 24.7 µM (inactive).
With `CCCCN(CCCC)C(=O)C(=O)C(C(=O)c1ccc(OC)cc1)c1ccc(OC)cc1` (stereo not drawn) the GI50 [4] was > 100 µM (inactive), the GI50 [5] was > 100 µM (inactive) and the GI50 [6] was > 100 µM (inactive). For the same molecule, the GI50 [7] was > 100 µM (inactive) and the GI50 [8] was 78.7 µM (inactive).
With `C=CCOC(=O)c1c(C)[n+]([O-])c2cc(Cl)c(Cl)cc2[n+]1[O-]` the GI50 [2] was 18.9 µM (inactive) and the GI50 [1] was 34.4 µM (inactive).
For `O=c1c2cn[nH]c2nc2scc(-c3ccc(Cl)cc3)n12`, the GI50 [2] was > 100 µM (inactive).
With `O=C1C2=Cc3ccccc3OC2(O)Oc2ccc(O)cc21` (stereo not drawn) the GI50 [2] was > 100 µM (inactive) and the GI50 [1] was 4.71 µM (inactive).
`Cc1cc2ncn(C3CCCO3)c2cc1C` (stereo not drawn) was tested, and the GI50 [2] was > 100 µM (inactive) and the GI50 [1] was > 100 µM (inactive).
`COC(=O)C1(NC(=O)C(Cc2ccccc2)N(C(=O)OC(C)(C)C)C(=O)OC(C)(C)C)CCCC1` (stereo not drawn) was tested, and the GI50 [2] was 36.6 µM (inactive).
`Cn1c(=O)oc2cc(C(=S)N3CCCCC3)ccc21` was tested, and the GI50 [1] was > 100 µM (inactive).
For `Cc1cn(C2CC(O)C(Cn3nncc3Cn3cnc4c(N)ncnc43)O2)c(=O)[nH]c1=O` (stereo not drawn), the GI50 [2] was > 100 µM (inactive) and the GI50 [1] was > 100 µM (inactive).
In the case of `C[C@]12CC[C@H](O)CC1=CC[C@@H]1[C@@H]2CC[C@]2(C)NC(=O)/C(=C\c3ccccc3)C[C@@H]12`, the GI50 [2] is reported as 12.3 µM (inactive) and the GI50 [1] is reported as 17 µM (inactive).
In the case of `COC(=O)Nc1nc(=O)c2cc(OC)c(OC)cc2[nH]1`, the GI50 [2] is reported as 36 µM (inactive) and the GI50 [1] is reported as 15.3 µM (inactive).
In the case of `C/C(Cc1ccc2c(c1)OCO2)=N\N=c1\sc2ccccc2n1C`, the GI50 [2] is reported as 58.7 µM (inactive) and the GI50 [1] is reported as > 100 µM (inactive).
